The record followed here is patent US11680298B2, “Method of identifying risk of cancer and therapeutic options” (Agency for Science, Technology and Research, priority 2016, dated 2023).

Experiment [1] has as its system tumourspheres from both cell lines and patient-derived samples. Kind of experiment: S100A8/S100A9 recombinant protein rescue of pacritinib-treated tumourspheres. It counts as cell-based, human. The note with it: recombinant protein 10 ng/ml added to culture medium; pacritinib 2.5 μM or 1 μM (method). The method, then: (§1) Mammosphere Formation Assay PDX-derived tumoursphere cells were trypsinized and passed through 40 μm cell strainer to achieve single cell suspensions. 3×10^4 cells were seeded in 6-well ultra-low attachment plates (Corning, N.Y.; CLS3471) in serum-free DMEM/F12 supplemented with N2 and B27 (Gibco, Grand Island, N.Y.), 20 ng/ml epidermal growth factor (MACS, Auburn, Calif.), 20 ng/ml basic fibroblast growth factor (MACS, Auburn, Calif.), 0.2 μM Thiazovivin ([…] Technologies, Vancouver, BC) and penicillin/streptomycin (Gibco, Carlsbad, Calif.). For breast cancer cell lines and MCF10A cell line, 3×10^4 cells were seeded in 6-well ultra-low attachment plates in Mammocult medium (Stem Cell Technologies, Vancouver, BC, Canada), supplemented with fresh hydrocortisone (0.5 μg/ml) and heparin (1:500). Mammospheres were maintained at 37° C. with 5% CO2 and topped up with medium every 3 days. After 7-9 days, mammospheres were stained with INT (2-(4-iodophenyl)-3-(4-nitrophenyl)-5-phenyl-2H-tetrazolium chloride, Sigma-Aldrich) and quantified. Imaging and quantification were done using GelCount apparatus and associated software (Oxford Optronix, Abingdon, UK). […] Cell Proliferation Assay

Experiment [2] relates to MCF10A. Kind of experiment: Mammosphere formation assay, MCF10A. It counts as cell-based. Conditions: long-term treatment with recombinant protein for 10 days. The method, then:
as §1

For experiment [3], the system named is K239S mutant cells (MB436, MB468). Kind of experiment: Tumoursphere formation of K239S mutant IRAK1 cells with recombinant protein rescue. It counts as cell-based. Conditions: recombinant protein added to culture medium of K239S mutant IRAK1 cells. How it is done:
as §1, with “Proliferation Assay […]” for “Proliferation Assay”

The target of experiment [4] is T1, IRAK1 (Homo sapiens, UniProt P51617). Kind of experiment: Western blot of phospho-IRAK1 in breast cancer cells and patient-derived tumourspheres. It counts as cell-based. Details: endogenous in cells; host or cells: MB468 and MB231 cells; PDX-derived tumourspheres. How it is done: Recombinant IL-1p (Cat no: 200-01B) was purchased from Peprotech (Rocky Hill, N.J.). Recombinant S100A7 (Cat no: pro-149), S100A8 (Cat no: pro-800) and S100A9 (Cat no: pro-814), were purchased from ProSpec (East Brunswick, N.J.). Cells were treated with recombinant proteins at stated concentration for 20 min before harvesting for western blot. Paclitaxel (Cat no: P-9600) was purchased from LC Lab (Woburn, Mass.).
(§2) All immunoblots shown in this specification represent at least two independent experiments. In brief, cells were washed with PBS and lysed in RIPA buffer supplemented with protease and phosphatase inhibitors and further sonicated using an XL2000 Microson Ultrasonice Processor (Misonix). Equal amounts of protein extract were separated on SDS-polyacrylamided gels and transferred to PVDF membranes. Membranes were further blocked with 5% milk or BSA, and then probed with the following antibodies: anti-IRAK1 was purchased from Santa Cruz Biotechnology (Santa Cruz, Calif.; sc-7883), anti-phospho-IRAK1 (T209) was purchased from Assay Biotech (Sunnyvale, Calif.; A1074), anti-JAK2 (Danvers, Mass.; #3230) and anti-phospho-JAK2 ([…]) (Danvers, Mass.: #3774) were purchased from Cell Signaling Technology, anti-actin was purchased from Sigma Aldrich CA; A5441). For protein extraction of xenograft tumours, snap frozen samples were resuspended in RIPA buffer supplemented with protease and phosphatase inhibitors and homogenized with QIAGEN TissueLyzer II as described by the manufacturer, followed by immunoblotting as described above.
On the technique in general: In western blotting, separated proteins are transferred to a membrane and probed.

The target in experiment [5] is T1, IRAK1. Described as above. It counts as cell-based. Details: endogenous in cells; host or cells: MB468 and MB231 cells; PDX-derived tumourspheres. Conditions: MCF10A, long-term treatment with recombinant protein for 10 days.
For experiment [6], the system named is EL12-58 PDX tumours. Kind of experiment: Neoadjuvant breast cancer PDX model of tumour recurrence. It counts as in vivo, NOD-SCID mice. Conditions: after paclitaxel-induced regression and surgery; 20 mg/kg paclitaxel, 150 mg/kg pacritinib or both.
For experiment [7], the target named is T2, JAK2 (Homo sapiens, UniProt O60674).
T2 construct: endogenous in cells; host or cells: MB468 and MB231 cells; PDX-derived tumourspheres
Kind of experiment: Western blot of phospho-JAK2 in breast cancer cells and patient-derived tumourspheres. It counts as cell-based. Conditions: patient-derived tumourspheres, IL-1 treatment.
Excerpt: as §2

[8] abbreviates: MB231 cells, recombinant protein as low as 1 ng/ml.

T1 sequence (P51617 whole entry): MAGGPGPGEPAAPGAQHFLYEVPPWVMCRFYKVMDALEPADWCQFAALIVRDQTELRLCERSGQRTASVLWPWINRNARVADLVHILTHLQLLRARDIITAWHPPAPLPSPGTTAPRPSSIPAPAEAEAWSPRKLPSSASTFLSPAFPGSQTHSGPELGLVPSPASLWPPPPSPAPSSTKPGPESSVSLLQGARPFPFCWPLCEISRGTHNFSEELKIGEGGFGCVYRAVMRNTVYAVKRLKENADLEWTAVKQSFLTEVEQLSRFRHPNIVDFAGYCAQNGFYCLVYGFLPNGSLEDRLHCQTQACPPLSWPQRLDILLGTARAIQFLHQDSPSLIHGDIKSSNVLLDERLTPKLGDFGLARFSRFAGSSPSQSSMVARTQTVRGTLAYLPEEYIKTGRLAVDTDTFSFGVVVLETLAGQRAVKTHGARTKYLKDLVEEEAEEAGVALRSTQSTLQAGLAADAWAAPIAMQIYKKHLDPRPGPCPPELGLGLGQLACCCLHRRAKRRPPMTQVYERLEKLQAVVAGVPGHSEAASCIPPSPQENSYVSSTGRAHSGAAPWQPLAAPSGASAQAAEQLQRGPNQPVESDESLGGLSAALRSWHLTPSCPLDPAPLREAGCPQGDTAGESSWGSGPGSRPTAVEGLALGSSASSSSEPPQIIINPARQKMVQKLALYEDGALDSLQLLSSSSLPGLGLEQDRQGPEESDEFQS
T2 sequence (O60674 whole entry): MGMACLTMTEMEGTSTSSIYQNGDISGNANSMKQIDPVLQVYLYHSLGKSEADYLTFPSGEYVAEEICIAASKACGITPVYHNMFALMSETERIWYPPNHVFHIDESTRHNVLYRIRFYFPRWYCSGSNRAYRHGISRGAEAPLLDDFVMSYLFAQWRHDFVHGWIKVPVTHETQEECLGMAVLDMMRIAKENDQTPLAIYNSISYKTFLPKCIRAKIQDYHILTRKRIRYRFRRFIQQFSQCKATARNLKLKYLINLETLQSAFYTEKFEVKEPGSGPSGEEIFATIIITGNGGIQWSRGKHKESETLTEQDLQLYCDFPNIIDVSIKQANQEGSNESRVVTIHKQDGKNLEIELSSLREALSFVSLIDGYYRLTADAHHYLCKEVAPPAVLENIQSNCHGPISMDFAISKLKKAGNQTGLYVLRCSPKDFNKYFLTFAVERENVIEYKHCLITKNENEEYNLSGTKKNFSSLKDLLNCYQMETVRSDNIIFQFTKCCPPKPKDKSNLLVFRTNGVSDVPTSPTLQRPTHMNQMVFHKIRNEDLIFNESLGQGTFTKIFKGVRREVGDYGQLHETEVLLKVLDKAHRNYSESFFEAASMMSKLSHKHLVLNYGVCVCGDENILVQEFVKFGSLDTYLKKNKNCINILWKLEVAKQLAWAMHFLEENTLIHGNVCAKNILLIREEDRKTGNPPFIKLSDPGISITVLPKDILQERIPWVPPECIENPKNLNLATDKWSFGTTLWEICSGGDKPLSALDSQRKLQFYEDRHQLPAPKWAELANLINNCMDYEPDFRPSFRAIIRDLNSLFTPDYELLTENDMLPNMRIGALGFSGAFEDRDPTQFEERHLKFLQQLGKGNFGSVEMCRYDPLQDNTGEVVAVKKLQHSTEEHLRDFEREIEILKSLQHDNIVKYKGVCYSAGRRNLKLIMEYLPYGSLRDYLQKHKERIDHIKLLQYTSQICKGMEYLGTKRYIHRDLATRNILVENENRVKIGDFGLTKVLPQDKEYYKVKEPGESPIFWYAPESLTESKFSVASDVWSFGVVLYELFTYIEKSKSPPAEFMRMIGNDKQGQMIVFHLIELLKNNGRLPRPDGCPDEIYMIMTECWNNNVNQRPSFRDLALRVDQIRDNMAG

As to “S100A9: Recombinant S100A9 protein purchased from ProSpec (Cat no: pro-814)”, the “rescue of pacritinib-induced tumoursphere growth inhibition” value in experiment [1] is “effectively rescued pacritinib-induced growth inhibition”. For the same molecule, in experiment [2], the mammosphere formation result was “increased mammosphere formation”. For the same molecule, the “rescue of tumoursphere growth” value in experiment [3] is listed as “able to rescue the tumoursphere growth”. The IRAK1 phosphorylation entry in experiment [4] (setting [8]) was “able to induce IRAK1 phosphorylation”; in experiment [5], “increased IRAK1 phosphorylation”.
Regarding “S100A8: Recombinant S100A8 protein purchased from ProSpec (Cat no: pro-800)”, the “rescue of pacritinib-induced tumoursphere growth inhibition” value in experiment [1] is recorded as “effectively rescued pacritinib-induced growth inhibition”. Also, the mammosphere formation entry in experiment [2] was “increased mammosphere formation”. Also, the “rescue of tumoursphere growth” value in experiment [3] is “able to rescue the tumoursphere growth”. The IRAK1 phosphorylation entry in experiment [4] (setting [8]) is on record as “able to induce IRAK1 phosphorylation”; in experiment [5], “increased IRAK1 phosphorylation”.
In the case of `CC(=O)O[C@H]1C(=O)[C@@]2(C)[C@H]([C@H](OC(=O)c3ccccc3)[C@]3(O)C[C@H](OC(=O)[C@H](O)[C@@H](NC(=O)c4ccccc4)c4ccccc4)C(C)=C1C3(C)C)[C@]1(OC(C)=O)CO[C@@H]1C[C@@H]2O` [paclitaxel], the “tumour regrowth after surgical removal of residual tumour” value in experiment [6] was “slowed down”.
Regarding “IL-1p: Recombinant IL-1p (Cat no: 200-01B) purchased from Peprotech”, in experiment [7], the JAK2 phosphorylation result is recorded as “remarkably induced JAK2 phosphorylation”. Further, the IRAK1 phosphorylation entry in experiment [4] (patient-derived tumourspheres, IL-1 treatment) was “did not have an obvious effect on IRAK1 phosphorylation”.

B1: S100A7: Recombinant S100A7 protein purchased from ProSpec (Cat no: pro-149) (protein, UniProt P31151 2-101, looked up)
Protein S100-A7: SNTQAERSIIGMIDMFHKYTRRDDKIEKPSLLTMMKENFPNFLSACDKKGTNYLADVFEKKDKNEDKKIDFSEFLSLLGDIATDYHKQSHGAAPCSGGSQ
Take B1: the IRAK1 phosphorylation result in experiment [4] (setting [8]) is listed as “able to induce IRAK1 phosphorylation”.
